The source of these data is publication PMC7614683, “A small molecule PI3Kα activator for cardioprotection and neuroregeneration” (Nature, 2023).

One assay has as its target CDK8/cyclin C (Homo sapiens, UniProt P49336). The assay can be described thus: SelectScreen LanthaScreen Binding. To be noted: 1000 nM. The gist of the method: (§1)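 Compound 1938 counterscreened at 1 μM against 133 protein and 7 lipid kinases in the SelectScreen panel, using Adapta, LanthaScreen binding and Z-LYTE formats as applicable.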
The next assay concerns the target CDK2/cyclin E1 (Homo sapiens, UniProt P24941). The assay can be described thus: SelectScreen LanthaScreen Binding. To be noted: 1000 nM. The gist of the method: as §1
For a further assay, the target named is MKNK2 (MNK2) (Homo sapiens, UniProt Q9HBH9). The assay can be described thus: SelectScreen LanthaScreen Binding. To be noted: 1000 nM. Put shortly:
as §1

For a further assay, the target named is RET V804M (Homo sapiens, UniProt P07949, V804M). The assay can be described thus: SelectScreen LanthaScreen Binding. To be noted: 1000 nM. Put shortly:
as §1

A further assay deals with T1, TGFBR1 (ALK5) (Homo sapiens, UniProt P36897).
T1 sequence (P36897 34-503): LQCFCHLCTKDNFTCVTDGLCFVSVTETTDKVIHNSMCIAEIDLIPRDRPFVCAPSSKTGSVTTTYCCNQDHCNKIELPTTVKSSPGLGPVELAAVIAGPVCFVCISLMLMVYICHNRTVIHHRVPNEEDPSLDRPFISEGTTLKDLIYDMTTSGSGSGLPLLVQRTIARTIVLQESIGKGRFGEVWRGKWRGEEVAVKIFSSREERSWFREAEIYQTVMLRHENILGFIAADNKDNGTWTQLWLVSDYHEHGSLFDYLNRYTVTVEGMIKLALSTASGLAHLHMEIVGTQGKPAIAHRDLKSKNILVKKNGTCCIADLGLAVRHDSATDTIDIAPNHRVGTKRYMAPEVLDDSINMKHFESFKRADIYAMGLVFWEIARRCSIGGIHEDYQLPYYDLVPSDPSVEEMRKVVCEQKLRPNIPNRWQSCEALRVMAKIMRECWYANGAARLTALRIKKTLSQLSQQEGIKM
The assay can be described thus: SelectScreen LanthaScreen Binding. The following applies: 1000 nM. Put shortly:
as §1

For another assay, the target named is BRK (Homo sapiens, UniProt Q13882). Nature of the assay: SelectScreen kinase profiling, BRK. In kind it is biochemical. The procedure: (§2) 133 protein kinases and 7 lipid kinases were counterscreened, with 1938 used at 1 μM, using the Adapta, Lantha and Z-LYTE assays (SelectScreen Kinase Profiling Service; Thermofisher – experimental details of these assays can be found here: https://www.thermofisher.com/uk/en/home/industrial/pharma-biopharma/drug-discovery-development/target-and-lead-identification-and-validation/kinasebiology/kinase-activity-assays.html. The tree represention in KinMap[59] generated courtesy of Cell Signaling Technology, Inc. (www.cellsignal.com). mTORC1 (mTOR/RAPTOR/LST8) protein complex and ATM kinase and substrates were produced as previously described[57],[60]. Screening of 1938 was conducted using SuperSep Phos-Tag 50 μmol/l 100 x 100 x 6.6 mm 17-well (192-18001/199-18011) gels. For ATM assays, 100 nM ATM was incubated for 30 min at 30°C with 5 μM GST-p53 and 1 mM ATP, in the absence or presence of 200 μM 1938 in ATM Kinase Buffer (50 mM HEPES pH 7.5, 100 mM NaCl, 10% glycerol, 2 mM […], 5 mM MgCl2). As a positive control for ATM activation, the same reaction was carried out with 100 nM ATM/5 μM GST-p53/1 mM ATP in the presence of 100 nM Mre11-Rad50-Nbs1 (MRN) complex, a known activator of ATM[61]. For mTORC1 assays, 50 nM mTORC1 complex (mTOR/LST8/RAPTOR) was incubated for 3 h at 30°C with 15 μM 4E-BP1, 10 mM MgCl2 and 250 μM ATP, in the absence or presence of 200 μM 1938. As a ‘positive’ control, a higher concentration (150 nM) of mTORC1 complex (mTOR/LST8/RAPTOR) was incubated for 3 h at 30°C with 15 μM 4E-BP1, 10 mM MgCl2 and 250 μM ATP. Kinase reactions were quenched by addition of SDS-PAGE Loading Buffer (as per manufacturer’s instructions) and freezing at -20°C before being run on the Phos-tag gels at 150 V for 90 min. Gels were then stained using InstantBlue™ Coomassie, and quantified using BioRad Image Lab Software. Kinase assays were carried out in triplicate.
Chain of BRK (Q13882 whole entry): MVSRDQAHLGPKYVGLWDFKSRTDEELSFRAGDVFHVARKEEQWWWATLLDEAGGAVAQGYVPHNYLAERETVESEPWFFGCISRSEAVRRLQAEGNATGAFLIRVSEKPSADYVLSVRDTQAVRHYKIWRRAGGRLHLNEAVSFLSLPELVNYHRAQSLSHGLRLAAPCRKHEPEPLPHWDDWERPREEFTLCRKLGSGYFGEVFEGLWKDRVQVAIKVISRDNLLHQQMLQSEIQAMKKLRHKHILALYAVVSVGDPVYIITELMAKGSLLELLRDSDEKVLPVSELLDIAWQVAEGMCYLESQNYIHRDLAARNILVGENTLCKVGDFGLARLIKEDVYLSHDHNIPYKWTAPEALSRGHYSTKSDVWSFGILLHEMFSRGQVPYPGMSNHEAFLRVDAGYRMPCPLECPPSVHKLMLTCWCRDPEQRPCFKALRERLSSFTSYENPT

Assay [1] has as its target T2, mTORC1 (mTOR/RAPTOR/LST8 complex) (Homo sapiens, UniProt P42345).
T2 construct: made in house
The assay can be described thus: mTORC1 in vitro kinase assay (Phos-tag gel). The following applies: 200 μM 1938. It is filed as biochemical. The procedure: as §2, with “For mTORC1 assays, 50 nM mTORC1 complex (mTOR/LST8/RAPTOR) was incubated for 3 h at 30°C with 15 μM 4E-BP1, 10 mM MgCl2 and 250 μM ATP, in the absence or presence of 200 μM 1938. As a ‘positive’ control, a higher concentration (150 nM) of mTORC1 complex (mTOR/LST8/RAPTOR) was incubated for 3 h at 30°C with 15 μM 4E-BP1, 10 mM MgCl2 and 250 μM ATP. Kinase reactions were quenched by addition of SDS-PAGE Loading Buffer (as per manufacturer’s instructions) and freezing at -20°C before being run on the Phos-tag gels at 150 V for 90 min.” left out, “Kinase assays were carried out in triplicate.” left out

Another assay deals with T3, PI3Kα (Homo sapiens, UniProt P42336).
T3 construct: Full-length human p110α was expressed either in a complex with full-length human p85α (for HTS, biochemistry and HDX-MS); 6xHis tag followed by TEV protease site (N); host or cells: Spodoptera frugiperda Sf9, baculovirus
T3 sequence (P42336 whole entry): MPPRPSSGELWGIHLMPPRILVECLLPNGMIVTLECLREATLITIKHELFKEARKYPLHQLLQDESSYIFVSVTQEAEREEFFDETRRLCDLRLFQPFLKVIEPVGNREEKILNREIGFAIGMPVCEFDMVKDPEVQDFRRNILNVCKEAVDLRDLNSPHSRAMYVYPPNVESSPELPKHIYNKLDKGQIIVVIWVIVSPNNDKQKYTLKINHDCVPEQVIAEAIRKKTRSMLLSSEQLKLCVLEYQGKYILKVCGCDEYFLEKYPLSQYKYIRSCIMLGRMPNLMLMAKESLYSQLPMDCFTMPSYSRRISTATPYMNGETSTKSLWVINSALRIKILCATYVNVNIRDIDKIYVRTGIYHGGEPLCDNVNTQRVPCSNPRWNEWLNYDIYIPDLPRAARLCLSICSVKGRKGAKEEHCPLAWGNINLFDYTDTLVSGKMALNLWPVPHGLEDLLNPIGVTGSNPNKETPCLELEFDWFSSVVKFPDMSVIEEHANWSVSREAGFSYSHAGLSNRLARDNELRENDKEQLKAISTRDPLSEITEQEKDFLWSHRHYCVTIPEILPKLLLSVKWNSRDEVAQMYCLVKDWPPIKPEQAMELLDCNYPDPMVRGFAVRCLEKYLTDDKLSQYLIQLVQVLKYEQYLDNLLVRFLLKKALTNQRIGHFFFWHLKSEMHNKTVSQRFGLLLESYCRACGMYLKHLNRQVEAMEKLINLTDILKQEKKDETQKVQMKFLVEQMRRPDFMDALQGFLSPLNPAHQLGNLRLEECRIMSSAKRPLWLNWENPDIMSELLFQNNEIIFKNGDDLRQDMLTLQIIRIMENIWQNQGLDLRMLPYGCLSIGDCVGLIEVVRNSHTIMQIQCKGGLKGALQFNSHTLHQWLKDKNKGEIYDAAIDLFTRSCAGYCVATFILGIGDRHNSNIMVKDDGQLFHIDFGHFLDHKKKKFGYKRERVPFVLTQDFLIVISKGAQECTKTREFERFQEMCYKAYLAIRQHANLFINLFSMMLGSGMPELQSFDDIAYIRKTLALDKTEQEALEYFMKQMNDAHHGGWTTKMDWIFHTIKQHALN
T3 sequence (P27986 whole entry partner): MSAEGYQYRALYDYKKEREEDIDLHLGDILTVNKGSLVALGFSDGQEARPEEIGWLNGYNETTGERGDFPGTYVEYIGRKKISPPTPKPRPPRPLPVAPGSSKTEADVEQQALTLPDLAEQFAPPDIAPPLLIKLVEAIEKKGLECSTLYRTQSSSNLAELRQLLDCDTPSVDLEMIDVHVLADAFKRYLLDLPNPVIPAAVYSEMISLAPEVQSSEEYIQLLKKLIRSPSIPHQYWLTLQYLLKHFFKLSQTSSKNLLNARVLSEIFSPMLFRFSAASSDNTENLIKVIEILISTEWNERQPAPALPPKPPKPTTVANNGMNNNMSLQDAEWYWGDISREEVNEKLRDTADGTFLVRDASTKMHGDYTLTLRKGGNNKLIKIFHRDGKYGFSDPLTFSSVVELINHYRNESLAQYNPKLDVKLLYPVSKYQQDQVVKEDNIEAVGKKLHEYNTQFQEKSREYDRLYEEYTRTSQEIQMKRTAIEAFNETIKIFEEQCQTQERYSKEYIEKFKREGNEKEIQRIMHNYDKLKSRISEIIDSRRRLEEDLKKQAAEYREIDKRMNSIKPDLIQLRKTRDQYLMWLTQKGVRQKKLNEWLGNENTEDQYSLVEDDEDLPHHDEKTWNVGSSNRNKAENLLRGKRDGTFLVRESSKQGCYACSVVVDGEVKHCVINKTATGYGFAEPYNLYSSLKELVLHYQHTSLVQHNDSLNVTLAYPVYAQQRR
Nature of the assay: FRET membrane binding assay. In kind it is biochemical. The following applies: compared with pY. The procedure:
Membrane binding assays were performed as previously published. Briefly, liposomes were prepared with 5% (w/v) brain PtdIns(4,5)P2, 20% brain phosphatidylserine, 35% brain phosphatidylethanolamine, 15% brain phosphatidylcholine, 10% cholesterol, 5% sphingomyelin, and 10% dansyl-phosphatidylserine (Avanti Polar Lipids). PI3Kα was used at a final concentration of 0.5 μM. Protein solutions were preincubated with 10 μM pY or compounds for 10 min before addition of liposomes. Liposomes were used at a final concentration of 50 μg/ml. The reaction mixture contained 5 μl enzyme, 2 μl compound and 3 μl liposomes, all diluted in 30 mM HEPES, 50 mM NaCl, pH 7.4. The reaction was allowed to proceed for 10 min at room temperature with 384 black-polystyrene plates (Corning #3544) on an orbital shaker at 200 rpm. FRET signals were measured using PHERAStar (BMG) with a 280 nm excitation filter with 350 nm and 520 nm emission filters to measure Dansyl-PS FRET emissions, respectively. FRET signal shown as I-I0, where I is the intensity at 520 nm, and I0 is the intensity at 520 nm for the solution in the absence of protein.

Where two headings read alike, the source gives them in different places.

Chain of MKNK2 (MNK2) (Q9HBH9 whole entry): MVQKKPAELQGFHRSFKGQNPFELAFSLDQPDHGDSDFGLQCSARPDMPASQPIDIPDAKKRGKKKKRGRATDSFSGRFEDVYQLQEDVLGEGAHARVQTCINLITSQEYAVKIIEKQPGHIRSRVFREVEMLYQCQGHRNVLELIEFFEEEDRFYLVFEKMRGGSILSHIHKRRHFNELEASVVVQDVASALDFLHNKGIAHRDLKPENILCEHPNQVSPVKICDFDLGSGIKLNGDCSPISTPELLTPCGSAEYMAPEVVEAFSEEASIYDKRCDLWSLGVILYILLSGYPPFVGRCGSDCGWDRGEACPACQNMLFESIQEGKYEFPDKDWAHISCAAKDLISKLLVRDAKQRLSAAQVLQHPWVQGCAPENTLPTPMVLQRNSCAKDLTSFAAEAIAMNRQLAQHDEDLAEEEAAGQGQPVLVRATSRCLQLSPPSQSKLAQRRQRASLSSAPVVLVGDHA
Chain of RET V804M (P07949 29-1114 V804M): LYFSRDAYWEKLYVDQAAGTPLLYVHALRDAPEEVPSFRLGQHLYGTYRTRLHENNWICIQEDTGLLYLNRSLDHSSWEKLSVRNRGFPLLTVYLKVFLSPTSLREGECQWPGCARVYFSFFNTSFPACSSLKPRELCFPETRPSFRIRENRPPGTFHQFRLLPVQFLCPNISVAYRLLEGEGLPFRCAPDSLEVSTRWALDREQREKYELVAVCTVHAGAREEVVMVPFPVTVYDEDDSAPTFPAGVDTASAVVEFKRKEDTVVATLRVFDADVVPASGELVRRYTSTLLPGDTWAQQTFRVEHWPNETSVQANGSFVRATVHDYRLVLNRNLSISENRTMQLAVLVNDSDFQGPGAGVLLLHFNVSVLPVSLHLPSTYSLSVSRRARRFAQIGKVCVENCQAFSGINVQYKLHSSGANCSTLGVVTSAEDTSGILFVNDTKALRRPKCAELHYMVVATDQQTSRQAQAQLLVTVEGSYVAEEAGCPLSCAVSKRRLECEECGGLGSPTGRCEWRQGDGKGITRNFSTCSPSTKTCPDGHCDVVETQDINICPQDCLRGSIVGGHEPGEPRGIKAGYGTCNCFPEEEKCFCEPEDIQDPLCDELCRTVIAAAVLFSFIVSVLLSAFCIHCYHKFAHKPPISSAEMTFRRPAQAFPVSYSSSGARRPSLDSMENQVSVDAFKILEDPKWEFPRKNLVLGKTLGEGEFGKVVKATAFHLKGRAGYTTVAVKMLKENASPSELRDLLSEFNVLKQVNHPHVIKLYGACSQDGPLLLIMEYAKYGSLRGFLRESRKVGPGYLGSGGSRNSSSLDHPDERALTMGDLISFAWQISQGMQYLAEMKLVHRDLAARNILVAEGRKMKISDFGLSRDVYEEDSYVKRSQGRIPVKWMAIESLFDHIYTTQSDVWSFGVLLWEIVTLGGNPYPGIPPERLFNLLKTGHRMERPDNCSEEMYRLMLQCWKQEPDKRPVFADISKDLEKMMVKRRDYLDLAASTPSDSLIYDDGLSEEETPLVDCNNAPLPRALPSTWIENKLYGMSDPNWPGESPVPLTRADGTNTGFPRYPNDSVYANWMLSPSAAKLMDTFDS
Chain of CDK8/cyclin C (P49336 whole entry): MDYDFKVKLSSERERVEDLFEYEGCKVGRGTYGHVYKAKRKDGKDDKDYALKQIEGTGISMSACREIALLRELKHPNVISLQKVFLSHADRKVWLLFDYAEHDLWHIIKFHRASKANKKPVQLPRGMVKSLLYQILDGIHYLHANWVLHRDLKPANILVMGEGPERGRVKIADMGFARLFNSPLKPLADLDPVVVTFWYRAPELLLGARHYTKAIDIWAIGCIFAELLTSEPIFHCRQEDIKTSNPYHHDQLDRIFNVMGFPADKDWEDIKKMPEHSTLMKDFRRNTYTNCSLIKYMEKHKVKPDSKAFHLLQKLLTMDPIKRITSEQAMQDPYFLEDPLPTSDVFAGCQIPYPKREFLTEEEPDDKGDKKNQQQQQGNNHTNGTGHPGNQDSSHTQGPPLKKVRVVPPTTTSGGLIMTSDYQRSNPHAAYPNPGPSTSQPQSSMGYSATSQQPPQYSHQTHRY
Chain of CDK8/cyclin C (P24863 whole entry partner): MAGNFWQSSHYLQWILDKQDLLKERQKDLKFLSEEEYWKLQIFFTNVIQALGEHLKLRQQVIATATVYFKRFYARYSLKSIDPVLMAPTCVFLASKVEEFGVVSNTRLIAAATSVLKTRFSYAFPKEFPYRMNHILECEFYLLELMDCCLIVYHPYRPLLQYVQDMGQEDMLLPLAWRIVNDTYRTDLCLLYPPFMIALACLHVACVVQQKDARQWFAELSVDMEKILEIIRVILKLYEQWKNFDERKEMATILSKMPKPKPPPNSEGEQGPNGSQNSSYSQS

Take `CCN1CCN(c2ccc(Nc3cc(Nc4cccc5c4N(C(C)=O)CC5)ccn3)cc2)CC1` [Compound 1938]: the “% Displacement Point 1” value at CDK8/cyclin C was -0.599%; at CDK2/cyclin E1, 3%; on MKNK2 (MNK2) it was 20%; on RET V804M, 1.24%; at TGFBR1 (ALK5), 19%. The “% Displacement Point 2” value on CDK8/cyclin C is 0.85%; on CDK2/cyclin E1, -14%; at MKNK2 (MNK2), 17%; at RET V804M it was -3%; at TGFBR1 (ALK5), 22%. Also, the “% Displacement mean” value on CDK8/cyclin C is given as 0.126%; on CDK2/cyclin E1, -5.56%; at MKNK2 (MNK2), 18%; at RET V804M, -0.94%; on TGFBR1 (ALK5), 21%. In addition, the inhibition at 1 µM was 55% on BRK (read-out: % Inhibition Point 1), 56% at BRK (read-out: % Inhibition Point 2) and 56% on BRK (read-out: % Inhibition mean). In addition, the “effect on mTORC1 activity” value in assay [1] is “did not affect the activity”. For the same compound, the “PI3Kα binding to lipid membranes (FRET signal), maximum level” value at PI3Kα was “about half of that induced by pY”.
